Results as given in patent US7071225B2, “Arylaminopropane analogues and their use for the treatment of glaucoma” (Alcon, Inc., priority 2001, dated 2006).
Counter-ions that a name gives are not always drawn. Like-named read-outs stand apart in the source and are kept apart here.

Key:
5-HT2a = molecular target: T1, 5-HT2a (Rattus norvegicus, UniProt P14842); experiment: 5-HT2 functional assay: [Ca2+]i mobilization (FLIPR) in A7r5 cells; type: cell-based; conditions: for Emax: read-out: FLIPR 5-HT2a % Emax A7r5 Ca + 2
T1 construct: endogenous in cells; host or cells: A7r5 rat vascular smooth muscle cells
T1 sequence (P14842 whole entry): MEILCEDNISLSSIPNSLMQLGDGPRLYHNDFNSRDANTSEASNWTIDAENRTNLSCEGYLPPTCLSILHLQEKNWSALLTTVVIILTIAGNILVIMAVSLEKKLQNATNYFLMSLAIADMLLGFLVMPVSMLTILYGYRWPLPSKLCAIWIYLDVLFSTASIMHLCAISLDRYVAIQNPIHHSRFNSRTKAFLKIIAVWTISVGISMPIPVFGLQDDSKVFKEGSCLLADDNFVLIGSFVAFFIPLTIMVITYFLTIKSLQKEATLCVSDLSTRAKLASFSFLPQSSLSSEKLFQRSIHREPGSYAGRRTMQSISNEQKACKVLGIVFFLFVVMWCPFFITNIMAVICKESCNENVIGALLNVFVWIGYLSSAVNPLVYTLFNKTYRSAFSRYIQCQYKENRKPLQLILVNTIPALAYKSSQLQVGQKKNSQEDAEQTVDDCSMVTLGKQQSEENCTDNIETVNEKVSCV
Method: The receptor-mediated mobilization on intracellular calcium ([Ca^2+]i) was studied using the Fluorescence Imaging Plate Reader (FLIPR) instrument. Rat vascular smooth muscle cells, A7r5, were grown in a normal media of DMEM/10% FBS and 10 μg/mL gentamycin. Confluent cell monolayers were trypsinized, pelleted, and re-suspended in normal media. Cells were seeded in a 50 μL volume at a density of 20,000 cells/well in a black wall, 96-well tissue culture plate and grown for 2 days.
On the day of the experiment, one vial of FLIPR Calcium Assay Kit dye was re-suspended in 50 mL of a FLIPR buffer consisting of Hank's Balanced Salt Solution (HBSS), 20 mM HEPES, and 2.5 mM probenecid, pH 7.4. Cells were loaded with the calcium-sensitive dye by addition of an equal volume ([…]) to each well of the 96-well plate and incubated with dye for 1 h at 23° C.
Typically, test compounds were stored at 25 μM in 50% DMSO/50% Ethanol solvent. Compounds were diluted 1:50 in 20% DMSO/20% Ethanol. For “hit” screening, compounds were further diluted 1:10 in FLIPR buffer and tested at a final concentration of 10 μM. For dose-response experiments, compounds were diluted 1:50 in FLIPR buffer and serially diluted 1:10 to give a 5- or 8-point dose-response curve.
The compound plate and cell plate were placed in the FLIPR instrument. At the beginning of an experimental run, a signal test was performed to check the basal fluorescence signal from the dye-loaded cells and the uniformity of the signal across the plate. The basal fluorescence was adjusted between 8000–12000 counts by modifying the exposure time, the camera F-stop, or the laser power. Instrument settings for a typical assay were the following: laser power 0.3–0.6 W, camera F-stop F/2, and exposure time 0.4 sec. An aliquot (25 μL) of the test compound was added to the existing 100 μL dye-loaded cells at a dispensing speed of 50 μL/sec. Fluorescence data were collected in real-time at 1.0 sec intervals for the first 60 secs and at 6.0 sec intervals for an additional 120 secs. Responses were measured as peak fluorescence intensity minus basal and where appropriate were expressed as a percentage of a maximum 5-HT-induced response.

5-HT2 receptor [1] = molecular target: T2, 5-HT2 receptor (Rattus norvegicus, UniProt P14842); experiment: 5-HT2 functional assay: phosphoinositide (PI) turnover in A7r5 cells; type: cell-based; set-up: [^3H]myo-inositol-labeled A7r5 rat vascular smooth muscle cells; endogenous in cells; host or cells: A7r5 rat vascular smooth muscle cells
T2 sequence (P14842 whole entry): as above
Method: The relative agonist activity of serotonergic compounds at the 5-HT2 receptor can be determined in vitro using the ability of the compounds to stimulate the production of [^3H]inositol phosphates in [^3H]myo-inositol-labeled A7r5 rat vascular smooth muscle cells by their ability to activate the enzyme phospholipase C. These cells are grown in culture plates, maintained in a humidified atmosphere of 5% CO2 and 95% air and fed semi-weekly with Dulbecco's modified Eagle medium (DMEM) containing 4.5 g/L glucose and supplemented with 2 mM glutamine, 10 μg/ml gentamicin, and 10% fetal bovine serum. For the purpose of conducting the phosphoinositide (PI) turnover experiments, the A7r5 cells are cultured in 24-well plates as previously [J. Pharmacol. Expt. Ther. 286, 411 (1998)]. Confluent cells are exposed for 24–30 hrs to 1.5 μCi [^3H]-myo-inositol (18.3 Ci/mmol) in 0.5 ml of serum-free medium. Cells are then rinsed once with DMEM/F-12 containing 10 mM LiCl prior to incubation with the test agent (or solvent as the control) in 1.0 mL of the same medium for 1 hr at 37° C., after which the medium is aspirated and 1 ml of cold 0.1 M formic acid added to stop the reaction. The chromatographic separation of [^3H]-inositol phosphates ([^3H]-IPs) on an AG-1-X8 column is performed as previously described [J. Pharmacol. Expt. Ther. 286, 411 (1998)] with sequential washes with H2O and 50 mM ammonium formate, followed by elution of the total [^3H]-IPs fraction with 1.2 M ammonium formate containing 0.1 M formic acid. The eluate (4 mL) is collected, mixed with 15 ml scintillation fluid, and the total [^3H]-IPs determined by scintillation counting on a beta-counter. Concentration-response data are analyzed by the sigmoidal fit function of the Origin Scientific Graphics software (Microcal Software, Northampton, Mass.) to determine agonist potency (EC50 value) and efficacy (Emax).

5-HT2 receptor [2] = molecular target: T2, 5-HT2 receptor; experiment: 5-HT2 receptor binding assay ([125I]DOI competition, cerebral cortex homogenates); conditions: 5-point, read-out: Rat Cerebral Cortex 5-HT2 IC50 5-pt (DOI)
Method: The assay mixture is incubated for 1 hour at 23° C. in polypropylene tubes and the assays terminated by rapid vacuum filtration over Whatman GF/B glass fiber filters previously soaked in 0.3% polyethyleneimine using ice-cold buffer. Test compounds (at different concentrations) are substituted for methiothepin. Filter-bound radioactivity is determined by scintillation spectrometry on a beta counter. The data are analyzed using a non-linear, iterative curve-fitting computer program [Trends Pharmacol. Sci., 16, 413 (1995)] to determine the compound affinity parameter.

[3] = monkey; Wang et al. 1997/1998; attributed to α1A receptor activity; cited from earlier work
[4] = rabbits; Osborne et al. 1996; cited from earlier work
[5] = A7r5 cells, percentage of maximum 5-HT-induced response
[6] = A7r5 cells, Ca2+ mobilization, read-out: FLIPR 5-HT2a EC50

Row | Compound | EC50 (5-HT2a) [nM] | Emax (5-HT2a; [5]) [%] | further results
1 | COc1c(CC(C)N)ccc2ccccc12 (centres unmarked) [Example 4, 2-(1-Methoxy-naphthalen-2-yl)-1-methylethylamine hydrochloride] | 580 | 28.9 | –
2 | COc1c(CC(C)N)cc(Br)c2ccccc12 (centres unmarked) [Example 5, 2-(4-Bromo-1-methoxy-naphthalen-2-yl)-1-methylethylamine hydrochloride] | 1120 | 38.9 | –
3 | COc1cc(C(O)C(C)N)c(OC)c2ccccc12 (centres unmarked) [Example 2, 2-Amino-1-(1,4-dimethoxy-naphthalen-2-yl)-propan-1-ol hydrochloride] | – | 26.9 | EC50 (5-HT2 receptor [1]): 6810 nM; Emax (5-HT2 receptor [1]; A7R5, read-out: Efficacy (Emax, %)): 113%; EC50 (5-HT2a; [6]): 1490 nM
4 | 2-amino-1-(3,8-dimethoxy-naphthalen-2-yl)-propan-1-ol hydrochloride [Example 6] | – | – | FLIPR 5-HT2a % Emax A7r5 Ca + 2 (5-HT2a; [5]): 17.8%; IC50 (5-HT2 receptor [2]): 4.92 nM
5 | COc1cc([C@H](O)[C@@H](C)N)c(OC)c2ccccc12 [Example 3, (1S,2R)-2-Amino-1-(1,4-dimethoxy-naphthalen-2-yl)-propan-1-ol hydrochloride] | – | 28.4 | EC50 (5-HT2a; [6]): 1410 nM
6 | COc1cc(C(=O)C(C)N)c(OC)c2ccccc12 (centres unmarked) [Example 9, 2-amino-1-(1,4-dimethoxy-naphthalen-2-yl)-propan-1-one hydrochloride] | – | 21.8 | –
7 | COc1cc(CC(C)N)c(OC)c2ccccc12 (centres unmarked) [Example 1, 2-(1,4-Dimethoxy-naphthalen-2-yl)-1-methylethylamine hydrochloride] | 188 | 46.5 | EC50 (5-HT2 receptor [1]): 238 nM; Emax (5-HT2 receptor [1]; A7R5; read-out: Efficacy (Emax, %)): 118%
8 | CC(N)Cc1ccc2ccccc2c1O (centres unmarked) [Example 7, 2-(1-hydroxy-naphthalen-2-yl)-1-methylethylamine hydrochloride] | – | 17.3 | –
9 | COc1cc(CC(C)N)cc2ccccc12 (centres unmarked) [Example 11, 2-(4-methoxy-naphthalen-2-yl)-1-methylethylamine hydrochloride] | 612 | 46.4 | –
10 | COc1ccccc1N1CCN(CCCNc2c(C)c(=O)n(C)c(=O)n2C)CC1 [5-methylurapidil] | – | – | effect on IOP [3]: lowers IOP
11 | COc1ccc(OC)c2cc(CC(C)N)ccc12 (centres unmarked) [Example 8, 2-(5,8-dimethoxy-naphthalen-2-yl)-1-methylethylamine hydrochloride] | – | 2.6 | –
12 | CCCN(CCC)C1CCc2cccc(O)c2C1 (centres unmarked) [Example 8-OH-DPAT, 8-hydroxydipropylaminotetralin] | – | – | effect on IOP [4]: reduces IOP
13 | CC(N)Cc1ccc2ccccc2c1 (centres unmarked) [Example 10, 2-(naphthalen-2-yl)-1-methylethylamine hydrochloride] | – | 20.4 | –
14 | COc1cc(CC(C)N)c(Br)c2ccccc12 (centres unmarked) [Example 12, 2-(1-Bromo-4-methoxy-naphthalen-2-yl)-1-methylethylamine hydrochloride] | 911 | 37.4 | –
